Data on 3 molecules can be found in patent US10206905B2, “Use of composition for preparing a medicament for treatment of amyotrophic lateral sclerosis” (priority 2015, dated 2019).

In experiment [1] the test system is SOD1-G93A mice. The experiment is described as follows: Onset time and survival time of SOD1-G93A mice (Example 1). It counts as in vivo. To be noted: for Survival Time Extension: i.p. once a day from age 70 d, versus SOD1-G93A control; for Onset Time / Survival Time: i.p. once a day from age 70 d until death. The text has this:
The transgenic mice (B6SJL-TgN[SOD1-G93A] 1Gur) carrying humanized copper/zinc superoxide dismutase (SOD1) (G93A mutants) and wild-type B6SJL F1 mice are purchased from Nanjing University. The breed conversation and propagation methods of the mice: one wild-type female mouse and one transgenic male mouse are allowed to mate with each other, with their progeny identified through polymerase chain reaction (PCR) with DNA extracted from the tail of young mice.
5 B6SJL-TgN(SOD1-G93A)1Gur male mice were allowed to mate with B6SJLF1 female healthy mice in a ratio of 1 male to 3 females beginning at the age of 60 d. DNA was extracted from the progeny mice tail-cutting (as required in the kits), plus SOD1 primers 5′ -[…]-3 ′ and 5 ′ -[…] AAGTGA-3 ′ were amplified through 30 PCR cycles, confirming SOD1 gene strips between 200˜300bp. Mice without SOD1 mutant gene were eliminated.
(§1) Calculated based on the effective doses of edaravone (SOD1-G93Amousel5 mg/kg, SOD1-H46R rat 3-6mg/kg) and those on cerebral ischemic animal models (SD rat 6 mg/kg) according to the literature, the dosage of edaravone was set at 12 mg/kg, then the dosage of the composition of edaravone and borneol was set at 15 mg/kg (the dosage of edaravone was set at 12 mg/kg, borneol was 3 mg/kg), and borneol was set at 3 mg/kg.
SOD1 genetic mutant mice at the age of 70 d were divided randomly into 4 groups according to their motor functions. Respectively: the SOD1 genetic mutation control group; the treating group of the composition of edaravone and borneol at 15 mg/kg; the treating group of edaravone at 12 mg/kg; the treating group of borneol at 3 mg/kg; another B6SJL healthy mice control group without SOD lgenetic mutation was additionally set. There was 14 mice each group, half of males and half of females.
From the day of grouping, animals in each group were dosed by intraperitoneal injection once a day, until death. Animals in the healthy control group and the SOD1 genetic mutation control group were given saline of equal volumes.
It was determined as muscle strength decline when the time of the mice keeping on the rotarod decreased by over 30% compared with the former time determined. The onset time of the mice was determined according to the variation of this motor function and the observation of the anterior limbs of the mice with or without tremor. When the mice have lain on their backs on smooth planes for 30 s and cannot righting reflex, or there was serious infection in one or both eyes, then the mice may be judged as death and sacrificed. The time from birth to death of a mouse was the survival time of the mouse.
It was assessed whether there was a synergistic effect between edaravone and borneol in the composition according to the Jong-eun's formula, q=E(a+b)/(Ea+Eb−Ea×Eb). In the formula, E(a+b) is the effective rate of the combined drugs, Ea, Eb is the effective rate of A drug, B drug used alone, respectively. If q value was in the range of 0.85˜1.15, indicating the sum of the combined two drugs; q value >1.15 indicating enhancement, and q value <0.85 indicating there was an antagonistic effect when two drugs were used together.

Experiment [2] has as its system SOD1-G93A mice. The experiment is described as follows: Rota-rod motor function of SOD1-G93A mice (Example 1). Format: in vivo. As to conditions: p<0.05, FIG. 1. The protocol: According to the methods reported in literatures, mice were placed on the Rota-rod (60 Hz/min, Φ190 mm), and the time from being placed on the Rota-rod to dropping was recorded. Each mouse was determined for 3 times at each time point, with the longest time of mouse keeping on the rotating rod reflecting the motor function of the mouse, the determination was stopped if the time was over 180s, calculated as 180s. The motor functions of the mice with SOD1 mutant gene were determined beginning at the age of 60 d. Thereafter, they were observed and determined every 10 days, until death.
as §1
SOD1 genetic mutant mice at the age of 70 d were divided randomly into 4 groups according to their motor functions. […]
(The rotarod test checks motor coordination on a turning rod.)

Experiment [3] has as its system SOD1-G93A mice. Nature of the experiment: Passive avoidance test of learning and memory in SOD1-G93A mice (Example 2). It counts as in vivo. To be noted: memory experiment; for Latency period after entering the dark room versus model group: age about 90 d, FIG. 2; for Number of step-through errors versus model group: FIG. 3. The text has this: The transgenic mice (B6SJL-TgN[SOD1-G93A] 1Gur) carrying humanized copper/zinc superoxide dismutase (SOD1) (G93A mutants)and wild-type B6SJL F1 mice are purchased from Nanjing University. The breed conversation and propagation methods of the mice: one wild-type female mouse and one transgenic male mouse were allowed to mate with each other, with their progeny identified through polymerase chain reaction (PCR) with DNA extracted from the tail of young mice.
Calculated based on the effective doses of edaravone (SOD1-G93Amouse 15 mg/kg, SOD1-H46R rat 3-6 mg/kg) and those on cerebral ischemic animal models (SD rat 6 mg/kg) according to the literature, the dosage of edaravone was set at 12 mg/kg, then the dosage of the composition of edaravone and borneol was set at 15 mg/kg (the dosage of edaravone was set at 12 mg/kg, borneol was 3 mg/kg), and borneol was set at 3 mg/kg.
SOD1 genetic mutant mice at the age of 70 d were divided randomly into 4 groups according to their motor functions. Respectively: the SOD1 genetic mutation control group; the treating group of the composition of edaravone and borneol at 15 mg/kg; the treating group of edaravone at 12 mg/kg; the treating group of borneol at 3 mg/kg; another B6SJL healthy mice control group without SOD1 genetic mutation was additionally set. There was 14 mice each group, half of males and half of females.
From the day of grouping, animals in each group were dosed by intraperitoneal injection once a day, until the behavior test has been completed. Animals in the healthy control group and the SOD1 genetic mutation control group were given saline of equal volumes.
The passive avoidance test was performed when the animals were at the age of about 90 d to determine their abilities of learning and memory. The experimental device was divided into two rooms, bright and dark. […] The mice were placed into the bright room with face back to the hole in the test, the timer was initiated at the same time, and the animals entered the dark room through passing the hole, subjecting to the electric shock (0.19 mA), the recorded time was the latency period, meanwhile recording the number of step-through errors in 5 min after the mice got into the dark room. The memory experiment was carried out on the third day, the time from placing each mouse into the bright room to entering the dark room was recorded, if the mouse didn't enter the dark room in 5 min, then the latency period was recorded as 300s, meanwhile recording the number of step-through errors in 5 min after the mice got into the dark room.
It was assessed whether there was a synergistic effect between edaravone and borneol in the composition according to the Jong-eun's formula, q=E(a+b)/(Ea+Eb−Ea×Eb). […]

Experiment [4] concerns SOD1-G93A mice. The experiment is described as follows: Onset time and survival time of SOD1-G93A mice (Example 3). It counts as in vivo. On the procedure: The transgenic mice with amyotrophic lateral sclerosis (B 6 SJL-Tg(SOD1*G93A)1Gur/JNj u, hereinafter referred to as SOD1-G93 A mice) and the wild-type control mice were purchased from Nanjing Biomedical Research Institute of Nanjing University.
Dosing to animals was initiated from the age of 10 weeks, keeping on the whole survival period. Each dosage of the composition and the positive drug edaravone group was dosed by intraperitoneal injection once a day. […] Animals in the wild control group and the model group were given the corresponding volumes of solvents by intraperitoneal injection.
From the age of 10 weeks, the body weight, the motor function (motor ability score, rotarod test) of animals had been monitored once a week. Two consecutive rod droppings in the animal rotarod test had been considered as the sign of the onset of animal diseases. It was defined as the end of a disease to euthanasia when the animal cannot get righting in 30 seconds after being laid on one side.
The body weight, the motor ability score, the variation of the rod drop latency period with the time in the rotarod test, the onset time, and the survival time were considered as the indexes of observing the disease progress.

Experiment [5] has as its system SOD1-G93A mice. Nature of the experiment: Motor function scores of SOD1-G93A mice (Example 3). It counts as in vivo. As to conditions: p<0.05, FIG. 5.
In experiment [6] the test system is SOD1-G93A mice. The experiment is described as follows: Rotarod test drop time of SOD1-G93A mice (Example 3). As to conditions: p<0.05, FIG. 6. Format: in vivo.
In another experiment the test system is mutant SOD1 G93A mice. As to conditions: cited from earlier work.
Experiment [7] has as its system amyotrophic lateral sclerosis. To be noted: clinical phase-III study NCT00330681; primary endpoint not reached; cited from earlier work.
The test system of a further experiment is SOD1-H46R rat. As to conditions: according to the literature; cited from earlier work.
Experiment [8] concerns cerebral ischemic animal models. To be noted: SD rat, according to the literature; cited from earlier work.
Experiment [9] has as its system SOD1-G93A mice. The experiment is described as follows: Body weight of SOD1-G93A mice (Example 3). It counts as in vivo. As to conditions: 100 μg/ml in drinking water; age 21 weeks; p<0.05; FIG. 4.
The mark [10] stands for this setting: 15 mg/kg/d i.p. once a day from age 10 weeks, mean ± standard error.
The mark [11] stands for this setting: 100 μg/ml in drinking water, age 16-21 weeks.

Marks after values point to notes of the source that are not given here.

Turning to `CC1(C)C2CCC1(C)C(O)C2` (stereo not shown) [Borneol, 2-camphol], the “Effect on the survival time versus model group” value with SOD1-G93A mice [1] (3 mg/kg/d i.p. from age 70 d) was “no statistical difference compared with the model group”. In the experiment with SOD1-G93A mice [1] (3 mg/kg/d), the “Survival Time Extension” value was 2.9 days, the “Onset Time” value was 113.1 ± 2.5 days and the “Survival Time” value was found to be 141.3 ± 3.6 days. In the experiment on SOD1-G93A mice [1] (3 mg/kg/d, listed as borneol), the “Survival Time” value is 141.3 ± 3.6 days. Also, the “Rotarod time versus model group” value in the experiment on SOD1-G93A mice [2] (3 mg/kg/d i.p., only at age 130 d) is “different significantly from the model group”. In addition, the “Latency period after entering the dark room versus model group” value in the experiment with SOD1-G93A mice [3] (3 mg/kg/d i.p. from 70 d) was “not obvious”. The “Number of step-through errors versus model group” value with SOD1-G93A mice [3] (3 mg/kg/d i.p.) is recorded as “not obvious”.
Take `CC1=NN(c2ccccc2)C(=O)C1` [Edaravone, 3-methyl-1-phenyl-2-pyrazolin-5-one]: in the experiment with SOD1-G93A mice [1] (12 mg/kg/d i.p. from age 70 d), the “Effect on the survival time versus model group” value is reported as “extending the survival time of the mice significantly”. For the same molecule, the “Influence on the onset time of the mice” value in the experiment on SOD1-G93A mice [1] (12 mg/kg/d i.p. from age 70 d) is “no influence on the onset time”. Further, the “Survival Time Extension” value was determined as 6.2 days in the experiment with SOD1-G93A mice [1] (12 mg/kg/d) and 9.4 days in the experiment on SOD1-G93A mice [4] (15 mg/kg/d i.p., versus SOD1-G93A control). The figures for the “Onset Time” value with SOD1-G93A mice [1] (12 mg/kg/d) and in the experiment on SOD1-G93A mice [4] (setting [10]) were 113.7 ± 2.6 days and 111.3 ± 10.0 days, respectively. Besides, the “Survival Time” value with SOD1-G93A mice [1] (12 mg/kg/d) was 144.6 ± 3.7 days; in the experiment on SOD1-G93A mice [1] (12 mg/kg/d, listed as edaravone), 144.6 ± 3.7 days; in the experiment with SOD1-G93A mice [4] (setting [10]), 151.7 ± 9.7* d. Moreover, the “Rotarod time (muscle strength, motor function) versus model control group” value in the experiment on SOD1-G93A mice [2] (12 mg/kg/d i.p., age 110, 120, 130 d) is reported as “significantly slow the decline of the muscle strength”. For the same molecule, the “Latency period after entering the dark room versus model group” value in the experiment on SOD1-G93A mice [3] (12 mg/kg/d i.p. from 70 d, p<0.05) is reported as “extended significantly”. Also, the “Number of step-through errors versus model group” value with SOD1-G93A mice [3] (12 mg/kg/d i.p., p<0.05) is on record as “decreased significantly”. Also, in the experiment on SOD1-G93A mice [5] (15 mg/kg/d i.p., age 17, 20, 21 weeks), the “Motor function scores versus model group” value is “significantly higher than in the model group”. Besides, the “Drop time in the rotarod test versus model group” value in the experiment with SOD1-G93A mice [6] (15 mg/kg/d i.p., age 16, 19, 20, 21 weeks) is “markedly longer than in the model group”. Moreover, the “Progression of the symptoms and degeneration of neuron” value in the experiment on mutant SOD1 G93A mice (Exp Neurol. 2008, 213(2):448-55) is reported as “capable of slowing the progression of the symptoms”. Also, the Effective dose with mutant SOD1 G93A mice (SOD1-G93A mouse, according to the literature) was 15 mg/kg; in the experiment with SOD1-H46R rat it was 3 to 6 mg/kg; in [8], 6 mg/kg. For the same molecule, the “ALSFRS-R score versus placebo group” value in experiment [7] is “decreased less than the placebo group, there was no significant difference”.
Take `Nc1nc2ccc(OC(F)(F)F)cc2s1` [Riluzole]: the “Onset Time” value with SOD1-G93A mice [4] (100 μg/ml in drinking water from age 10 weeks, mean ± standard error) was 109.2 ± 9.4 days. Besides, the “Weight of animals versus model control group” value in the experiment on SOD1-G93A mice [9] is reported as “significantly higher than in the model control group”. The “Motor function scores versus model group” value with SOD1-G93A mice [5] (setting [11]) was “significantly higher than in the model group”. The “Drop time in the rotarod test versus model group” value in the experiment with SOD1-G93A mice [6] (setting [11]) was “longer than in the model group markedly”.
